Test results from patent US12466849B2, “Anti-viral and anti-tumoral compounds” (YEDA RESEARCH AND DEVELOPMENT CO. LTD, priority 2020, dated 2025).
Where two headings read alike, the source gives them in different places.

Legend:
JC virus (JCV) [1] = system: JC virus (JCV)
[2] = human; for CLhep / Eh / Peak area ratio, parent: 1 μM
[3] = MRC-5 cytotoxicity assay (MTS) and visual cytotoxicity; settings: human
[4] = Rat plasma pharmacokinetics after IV infusion and PO dose; settings: rats; 10 mg/kg IV 2-h infusion and PO
in vitro [5] = settings: human
[6] = system: BK virus (BKV), Gardner strain
in vitro [7] = settings: human; remark: listed apart in the source
HFF cells = experiment: Cell proliferation assay, human foreskin fibroblast (HFF) cells; assay type: cell-based; settings: Homo sapiens, 72 h, cell number
in vitro [8] = settings: male, SD, rat, plasma
HCMV AD169 = experiment: HCMV plaque reduction assay, MRC-5 cells, strain AD169; assay type: cell-based, Human cytomegalovirus
in vitro [9] = settings: human; remark: listed apart in the source
in vitro [10] = settings: both, human, plasma
in vivo = settings: male, Sprague-Dawley, rat; for AUC(0-inf): AUCInf; for AUC(0-t): AUClast; for clearance: CL; for MRT inf: MRTInf
in vitro [11] = settings: African green monkey
in vitro [12] = settings: rat
[13] = system: BK virus (BKV), Gardner strain; experiment: microbe, parasite or virus in culture; settings: Betapolyomavirus hominis, HFF
JC virus (JCV) [14] = experiment: microbe, parasite or virus in culture; settings: JC polyomavirus, COS-7
[15] = rat; for CLhep / Eh: 1 μM; for Peak area ratio, parent: 1 µM
JC virus (JCV) [16] = experiment: Secondary JCV assay (qPCR), COS7 cells
[17] = Secondary JCV assay (qPCR), COS7 cells; settings: African green monkey

## CCCCCCCCCCCCCCCCOCCCOP(=O)(O)OCC1=C[C@H](O)[C@H](n2cnc3c(=O)[nH]c(N)nc32)O1 [AB23040]
JC virus (JCV) [1]
  Activity: LO (key: NA (Not Active) SI50 = 0-3.9; LO (Slightly Active) SI50 = 4-9.9; MOD (Moderately Active) SI50 = 10-19.9; HI (Highly Active) SI50 = ≥20)
  activity against JC virus (in words): Low activity
[2]
  CLhep: 10.6 mL/min/kg
  Eh: 24%
[2]; 15 min
  Peak area ratio, parent: 1.33E−01
[2]; 60 min
  Peak area ratio, parent: 1.05E−01
[2]; s9
  hydrolytic stability in hepatic S9 (in words): least stable
[2]; s9, 1 μM
  T1/2: 3.32 h
[3]
  CC50 at 6 days: > 100 µM
[4]
  tolerability / adverse events (AE): well-tolerated
In vitro [5]
  CC50 at 7 d: 112 µM
[6]
  Activity: LO (key: NA (Not Active) SI50 = 0-3.9; LO (Slightly Active) SI50 = 4-9.9; MOD (Moderately Active) SI50 = 10-19.9; HI (Highly Active) SI50 = ≥20)
  activity against BK virus (in words): Low activity
In vitro [7]
  CC50: 25.1 µM
HFF cells
  IC50: 65.9 µM
In vitro [8]
  half-life at 0.75 µM: > 9.32 h
  half-life at 0.75 μM: > 9.3 h
HCMV AD169; Human betaherpesvirus 5, 144 h, hCMV AD169, MRC5 cells, plaque assay, 6-days duration
  EC50: 22.1 µM
HCMV AD169; MRC5 cells, AD169 strain
  antiviral activity against hCMV (in words): impressive antiviral activity
HCMV AD169; hCMV AD169, MRC5 cells
  Selectivity Index (CC50/EC50): >4.52
In vitro [9]; s9
  microsomal CLint at 1 μM: 7 µL/min/mg
In vitro [9]; s9, T1/2
  half-life at 1 µM: 4.69 h
  half-life at 1 μM: 3.31 h
In vitro [10]
  half-life at 0.75 µM: > 9.32 h
  half-life at 0.75 μM: > 9.3 h
In vivo; iv, 10 mg/kg
  concentration at 0.5 h: 2670 nM
  concentration at 1 h: 3260 nM
  concentration at 2 h: 4070 nM
  concentration at 4 h: 133 nM
  concentration at 8 h: 13 nM
  concentration at 24 h: 5 nM
  concentration at 72 h: 4 nM
  AUC(0-inf): 9.13 µM·h
  AUC(0-t): 9.12 µM·h
  clearance: 28.3 mL/min/kg
  Cmax: 3650 nM
  Tmax: 2 h
In vivo; iv, 10 mg/kg, Terminal t1/2
  half-life: 37 h
In vivo; iv, 10 mg/kg, t1/2
  half-life: 0.8 h
In vivo; iv, t1/2 in plasma
  half-life: < 1 h
In vivo; po, 10 mg/kg
  bioavailability: 4%
  concentration at 0.5 h: 38 nM
  concentration at 1 h: 58 nM
  concentration at 2 h: 77 nM
  concentration at 4 h: 30.4 nM
  concentration at 8 h: 24 nM
  AUC(0-inf): 0.503 µM·h
  AUC(0-t): 0.387 µM·h
  MRT inf: 5.2 h
  Tmax: 2 h
In vitro [11]
  CC50: 80.7 µM
In vitro [12]; s9
  microsomal CLint at 1 μM: 5.8 µL/min/mg
In vitro [12]; s9, T1/2
  half-life at 1 µM: 5.72 h
  half-life at 1 μM: 3.95 h
[13]
  EC50: 4.97 µM
  EC90: > 6 µM
JC virus (JCV) [14]
  EC50: 8.85 µM
  EC90: 28 µM
[15]
  CLhep: 18.7 mL/min/kg
  Eh: 21%
[15]; 15 min
  Peak area ratio, parent: 1.16E−01
[15]; 60 min
  Peak area ratio, parent: 1.11E−01
[15]; s9
  hydrolytic stability in hepatic S9 (in words): least stable
[15]; s9, 1 μM
  T1/2: 3.95 h
JC virus (JCV) [16]; JC polyomavirus, COS-7, 168 h
  EC50: 0.37 µM
  EC90: 18.6 µM
JC virus (JCV) [16]; secondary JCV assay, COS7 cells, class by SI50
  Activity: HI (HI (Highly Active) SI50 = ≥20)
JC virus (JCV) [16]; secondary testing, COS7 cells
  antiviral activity against JCV (in words): high
[17]
  CC50 at 7 days: 31.3 µM

## CCCCCCCCCCCCCCCCOCCCOP(=O)(O)CO[C@H](CO)Cn1ccc(N)nc1=O [BCV, Brincidofovir]
JC virus (JCV) [1]
  activity against JC virus (in words): high or moderate activity
[2]
  CLhep: 9.5 mL/min/kg
  Eh: 31%
[4]
  tolerability / adverse events (AE): well-tolerated
[6]
  activity against BK virus (in words): high or moderate activity
In vitro [7]
  CC50: > 10 µM
In vitro [8]
  half-life at 0.75 μM: > 9.3 h
In vitro [9]; s9, T1/2
  half-life at 1 μM: 4.1 h
In vitro [10]
  half-life at 0.75 μM: > 9.3 h
In vivo; iv, 10 mg/kg
  concentration at 0.5 h: 3400 nM
  concentration at 1 h: 3200 nM
  concentration at 2 h: 3660 nM
  concentration at 4 h: 45 nM
  concentration at 8 h: 9 nM
  concentration at 24 h: 6 nM
  AUC(0-inf): 9.01 µM·h
  AUC(0-t): 8.98 µM·h
  clearance: 33.3 mL/min/kg
  Cmax: 3760 nM
  MRT inf: 1.9 h
In vivo; iv, 10 mg/kg, Vss
  Vd: 3.7 L/kg
In vivo; iv, 10 mg/kg, t1/2
  half-life: 0.8 h
In vivo; iv, t1/2 in plasma
  half-life: < 1 h
In vivo; po, 10 mg/kg
  bioavailability: 11%
  concentration at 0.5 h: 21 nM
  concentration at 1 h: 25 nM
  concentration at 2 h: 42 nM
  concentration at 4 h: 39 nM
  concentration at 8 h: 11 nM
  AUC(0-inf): 1.2 µM·h
  AUC(0-t): 1.17 µM·h
  Cmax: 141 nM
  MRT inf: 6.9 h
  Tmax: 4 h
In vivo; po, 10 mg/kg, t1/2
  half-life: 4.2 h
In vitro [11]
  CC50: 9.25 µM
In vitro [12]; s9, T1/2
  half-life at 1 μM: 7.68 h
[13]
  EC50: 0.06 µM
  EC90: 0.39 µM
JC virus (JCV) [14]
  EC50: 0.74 µM
  EC90: 1.85 µM
[15]
  CLhep: 11.5 mL/min/kg
  Eh: 16%
